Columns and labels:
glutaminase = test: Glutaminase activity in post-ischemic kidney tissues; assay type: in vivo, mouse; settings: post-ischemic kidney tissues at 24 h after IRI; JHU083 1.83 mg/kg i.p. every other day; P=0.008
Protocol: To confirm that JHU083 suppressed glutamine-related enzymes in kidneys, glutaminase activities were measured in post-ischemic kidney tissues at 24 h after IRI.
(§1) Glutamine antagonist, JHU083 was synthesized as previously described, Rais et al., 2016, and dissolved in 50 mM […] 4-(2-hydroxyethyl)-1-piperazineethanesulfonic acid (HEPES) buffered 0.9% saline. Aliquot stocks were stored at −80° C. and thawed right before injection. Before the IRI surgery or cisplatin injection, mice were administered 1.83 mg/kg JHU083 (equivalent to 1 mg/kg DON) or vehicle (50 mM HEPES buffered 0.9% saline) every other day via intraperitoneal injection. Following 4 consecutive dosages, mice underwent IRI surgery or cisplatin injection. The last additional dose was given at 24 h after IRI or cisplatin injection. This dosage regimen was chosen based on efficiency and toxicity data from a previous study. Hollinger et al., 2020.
Glutaminase activity measurements in kidney samples were adapted from previously described protocols. Engler et al., 2002. […] [^3H]-Glutamate, the reaction product, was then eluted with 0.1 N HCl and analyzed for radioactivity using Perkin Elmer's TopCount instrument in conjunction with their 96-well LumaPlates. […]

kidney T cells = test: In vitro kidney T cell proliferation (CFSE) under hypoxia/reoxygenation; assay type: cell-based, mouse; settings: 1 μM JHU083, hypoxia followed by reoxygenation
Protocol: Glutamine blocking effect on the kidney T cell proliferation was assessed with carboxyfluoroscein succinimidyl ester (CFSE) analysis. FACS sorted kidney T cells (CD45^+, TCR αβ^+) were cultured with media containing 1 μM JHU083 or vehicle and underwent hypoxia followed by reoxygenation.
Kidney T cells were isolated using FACS. Briefly, single-cell suspension of KMNCs was preincubated with anti-CD16/CD32 Fc block (S17011E, BioLegend) stained in Cell Staining Buffer (BioLegend) with fluorochrome-labeled antibodies: APC-Cy7 anti-CD45 (30-F11) and BV421 anti-TCRβ ([…]) from BioLegend. Live Dead Aqua (Thermo Fisher Scientific) was stained for viability assay. […] TCRβ^+ cells were sorted with FACSAria II Cell Sorter (BD Bioscience). Splenic T cells were isolated from single cells suspension of spleens using a T Cell Isolation Kit II (Miltenyi Biotec, North Rhine-Westphalia, Germany) according to the manufacturer's guideline.
48-well flat-bottom plates were coated with 5-μg/mL anti-CD3 in PBS and incubated at 4° C. overnight. Anti-CD3 coated plates were washed with PBS, and isolated cells were cultured in RPMI 1640 GlutaMAX (Thermo Fisher Scientific) supplemented with 10% FBS (Thermo Fisher Scientific), […] HEPES buffer (Thermo Fisher Scientific), 100-μM non-essential amino acid solution (Sigma-Aldrich), and 55-μM 2-mercaptoethanol (Sigma-Aldrich)±JHU083. […]

[1] = tested on: ischemic AKI in C57BL/6J mice; test: Ischemic AKI model (bilateral IRI 30 min): kidney function and histology; assay type: in vivo, mouse
Protocol: Mice were treated with 1.83 mg/kg of JHU083 or vehicle every other day via intraperitoneal injection and underwent bilateral IRI surgery on day 7 after the initial injection. […] Hollinger et al., 2020. Mice were followed up until 72 h after IRI, and T cells isolated from post-ischemic kidneys were studied (FIG. 14A).
Mice were anesthetized with an intraperitoneal injection of pentobarbital (75 mg/kg; Akorn, Lake Forest, IL). After shaving of abdominal hair, mice were placed onto a thermostatically controlled heating table. Abdominal midline incision was performed, and both renal pedicles were dissected and clamped for 30 min with a microvascular clamp (Roboz Surgical Instrument, Gaithersburg, MD). After 30 min, microvascular clamps were released from renal pedicles and the kidneys were inspected to confirm reperfusion. During the surgery, mice were kept well hydrated with 1 mL of warm sterile 0.9% saline. After being sutured, mice were allowed to recover with free access to chow and water. Sham surgeries were performed identically without clamping of renal pedicles.
Blood samples were obtained at 0, 24, 48, and 72 h after IRI or cisplatin injection through tail vein collection. Plasma creatinine concentration was measured by Cobas Mira Plus automated analyzer system (Roche, Indianapolis, IN) with creatinine reagent (Pointe Scientific Inc, Canton, MI).
At 24 h after IRI and 72 h after cisplatin injection, mice were anesthetized with ketamine (130 mg/kg; VetOne, Boise, ID) and xylazine (7 mg/kg; Akorn) intraperitoneal injection. After exsanguination, kidneys were collected and fixed with 10% buffered formalin followed by paraffin embedding. Tissue sections were stained with hematoxylin and eosin. A renal pathologist scored necrotic tubules in a blinded fashion.
as §1

[2] = 1.83 mg/kg every other day i.p.; even with a longer duration of treatment; cited from earlier work

With `CCOC(=O)[C@H](CCC(=O)C=[N+]=[N-])NC(=O)[C@@H](N)CC(C)C` [JHU083] the “glutaminase activities, decrease” value (glutaminase) was 29%, the “cell numbers on day 3” value (kidney T cells) was “significantly lower” and the “proportion of undivided cells (CFSE)” value (kidney T cells; P<0.001) was “significantly higher proportion of undivided cells”. For the same compound, the “plasma creatinine at 24 h” value ([1]; 24 h after IRI, JHU083 1.83 mg/kg i.p. every other day, mean±SEM, vehicle 1.61±0.18, P=0.026) was 1.07 ± 0.14 mg/dL, the cortical necrotic tubules ([1]; 24 h after IRI, vehicle 6.6±0.9, P=0.039) was 4.2±0.5% and the medullary necrotic tubules ([1]; 24 h after IRI, vehicle 69.7±3.1, P=0.093) was 58.3±5.7%. For the same compound, the renal injury ([1]; Example 1, FIG. 7, treated before inducing AKI) was “attenuated renal injury at 24 hr” and the “tolerability of dosage regimen” value [2] was “tolerable without significant toxicity”.

Reference: US20240408114A1, “METHODS FOR PREVENTING AND TREATING ACUTE KIDNEY INJURY” (The Johns Hopkins University, priority 2021, published 2024)
